# Patent publication US20250145665A1, “MACROCYCLIC PEPTIDES USEFUL AS MODULATORS OF TNF ALPHA” (Bristol-Myers Squibb Company, priority 2023, published 2025)
# Starred links: 1 amine or outer side, 2 acyl side, 3 side chain; linkers in the order of their positions; H or OH if unused. Positions of bridges follow the written chain, without caps; N, C: chain ends. Non-standard residues stand in square brackets, D forms with d. Residues, ends and D or L forms follow the SMILES beside them. ξ: configuration not given here. Bip(4'-COOH) = N[C@@H](Cc1ccc(-c2ccc(C(=O)O)cc2)cc1)C(=O)O; Bip(4'-NHAc) = CC(=O)Nc1ccc(-c2ccc(C[C@H](N)C(=O)O)cc2)cc1; Ala(morpholin-4-yl) = N[C@@H](CN1CCOCC1)C(=O)O; X85 = N=C(N)c1cccc(C[C@H](N[*:1])C(=O)[*:2])c1; Bip = N[C@@H](Cc1ccc(-c2ccccc2)cc1)C(=O)O; Ala(2-furyl) = N[C@@H](Cc1ccco1)C(=O)O; 2Pal = N[C@@H](Cc1ccccn1)C(=O)O; 2Thi = N[C@@H](Cc1cccs1)C(=O)O; Cha = N[C@@H](CC1CCCCC1)C(=O)O; Tle = CC(C)(C)[C@H](N)C(=O)O; ξIle = CC[C@H](C)C(N)C(=O)O; Aze = O=C(O)[C@@H]1CCN1; Sar = CNCC(=O)O
# Target: TNFα (Homo sapiens, UniProt P01375)
# Sequence (P01375 77-233 limits assumed): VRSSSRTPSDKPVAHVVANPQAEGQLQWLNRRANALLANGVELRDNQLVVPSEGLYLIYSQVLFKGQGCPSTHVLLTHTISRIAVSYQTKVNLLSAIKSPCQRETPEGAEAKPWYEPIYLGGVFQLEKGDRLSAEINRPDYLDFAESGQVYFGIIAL
# Test: TNF-Induced HEK-Blue Assay
# Assay type: cell-based
# Settings: HEK-Blue-CD40L cells, NF-kB-driven secreted alkaline phosphatase reporter; TNFα 0.5 ng/ml; 18 h; read-out: TNF induced HEK-Blue assay IC50 value
row,IC50,SMILES
1,50 to 200 nM,CC(=O)Nc1ccc(-c2ccc(C[C@@H]3NC(=O)[C@H](Cc4ccc(-c5ccccc5)cc4)NC(=O)[C@H](CC4CCCCC4)NC(=O)CSC[C@@H](C(=O)NCC(N)=O)NC(=O)[C@H](CC(C)C)NC(=O)[C@H](Cc4cccs4)NC(=O)[C@H](C(C)C)NC(=O)[C@@H]4CCCN4C(=O)[C@H](C(C)C)NC(=O)[C@@H](CCCNC(=N)N)NC(=O)[C@H](CC(=O)O)NC(=O)[C@@H]4CCCN4C(=O)CN(C)C3=O)cc2)cc1 [Example 289] ({CH2CO}-[Cha][Bip][Bip(4'-NHAc)][Sar]PD[dR]VPV[2Thi]LCG-NH2; thioether N-13)
2,50 to 200 nM,CC[C@H](C)C1NC(=O)[C@@H]2CCCN2C(=O)[C@H]([C@@H](C)CC)NC(=O)[C@@H](CCCNC(=N)N)NC(=O)[C@H](CC(=O)O)NC(=O)[C@H](Cc2ccccn2)NC(=O)CN(C)C(=O)[C@H](Cc2ccc(-c3ccc(NC(C)=O)cc3)cc2)NC(=O)[C@H](Cc2ccc(-c3ccccc3)cc2)NC(=O)[C@H](CC2CCCCC2)NC(=O)CSC[C@@H](C(=O)NCC(N)=O)NC(=O)[C@H](CC(C)C)NC(=O)[C@H](CCCNC(=N)N)NC1=O (some centres unmarked) [Example 290] ({CH2CO}-[Cha][Bip][Bip(4'-NHAc)][Sar][2Pal]D[dR]IP[ξIle]RLCG-NH2; thioether N-13)
3,< 50 nM,CC[C@H](C)C1NC(=O)[C@@H]2CCCN2C(=O)[C@H]([C@@H](C)CC)NC(=O)[C@@H](CCCNC(=N)N)NC(=O)[C@H](CC(=O)O)NC(=O)[C@H](Cc2ccccn2)NC(=O)CN(C)C(=O)[C@H](Cc2ccc(-c3ccc(NC(C)=O)cc3)cc2)NC(=O)[C@H](Cc2ccc(-c3ccc(C(=O)O)cc3)cc2)NC(=O)[C@H](CC2CCCCC2)NC(=O)CSC[C@@H](C(=O)NCC(N)=O)NC(=O)[C@H](CC(C)C)NC(=O)[C@H](CCCNC(=N)N)NC1=O (some centres unmarked) [Example 291] ({CH2CO}-[Cha][Bip(4'-COOH)][Bip(4'-NHAc)][Sar][2Pal]D[dR]IP[ξIle]RLCG-NH2; thioether N-13)
4,< 50 nM,CC[C@H](C)[C@@H]1NC(=O)[C@@H]2CCCN2C(=O)[C@H]([C@@H](C)CC)NC(=O)[C@@H](CCCNC(=N)N)NC(=O)[C@H](CC(=O)O)NC(=O)[C@H](Cc2cnc[nH]2)NC(=O)CN(C)C(=O)[C@H](Cc2ccc(-c3ccc(NC(C)=O)cc3)cc2)NC(=O)[C@H](Cc2ccc(-c3ccc(C(=O)O)cc3)cc2)NC(=O)[C@H](CN2CCOCC2)NC(=O)CSC[C@@H](C(=O)NCC(N)=O)NC(=O)[C@H](CC(C)C)NC(=O)[C@H](Cc2cnc[nH]2)NC1=O [Example 292] ({CH2CO}-[Ala(morpholin-4-yl)][Bip(4'-COOH)][Bip(4'-NHAc)][Sar]HD[dR]IPIHLCG-NH2; thioether N-13)
5,< 50 nM,CC[C@H](C)[C@@H]1NC(=O)[C@@H]2CCCN2C(=O)[C@H]([C@@H](C)CC)NC(=O)[C@@H](CCCNC(=N)N)NC(=O)[C@H](CC(=O)O)NC(=O)[C@H](Cc2ccc(O)cc2)NC(=O)CN(C)C(=O)[C@H](Cc2ccc(-c3ccc(NC(C)=O)cc3)cc2)NC(=O)[C@H](Cc2ccc(-c3ccccc3)cc2)NC(=O)[C@H](CN2CCOCC2)NC(=O)CSC[C@@H](C(=O)NCC(N)=O)NC(=O)[C@H](CC(C)C)NC(=O)[C@H](Cc2cccs2)NC1=O [Example 293] ({CH2CO}-[Ala(morpholin-4-yl)][Bip][Bip(4'-NHAc)][Sar]YD[dR]IPI[2Thi]LCG-NH2; thioether N-13)
6,< 50 nM,CC[C@H](C)[C@@H]1NC(=O)[C@@H]2CCN2C(=O)[C@H]([C@@H](C)CC)NC(=O)[C@@H](CCCNC(=N)N)NC(=O)[C@H](CC(=O)O)NC(=O)[C@H](Cc2ccc(O)cc2)NC(=O)CN(C)C(=O)[C@H](Cc2ccc(-c3ccc(NC(C)=O)cc3)cc2)NC(=O)[C@H](Cc2ccc(-c3ccccc3)cc2)NC(=O)[C@H](C(C)(C)C)NC(=O)CSC[C@@H](C(=O)NCC(N)=O)NC(=O)[C@H](CC(C)C)NC(=O)[C@H](Cc2ccc(O)cc2)NC1=O [Example 294] ({CH2CO}-[Tle][Bip][Bip(4'-NHAc)][Sar]YD[dR]I[Aze]IYLCG-NH2; thioether N-13)
7,< 50 nM,CC[C@H](C)[C@@H]1NC(=O)[C@@H]2CCCN2C(=O)[C@H]([C@@H](C)CC)NC(=O)[C@@H](CCCNC(=N)N)NC(=O)[C@H](CC(=O)O)NC(=O)[C@H](Cc2ccccc2)NC(=O)CN(C)C(=O)[C@H](Cc2ccc(-c3ccc(NC(C)=O)cc3)cc2)NC(=O)[C@H](Cc2ccc(-c3ccc(C(=O)O)cc3)cc2)NC(=O)[C@H](C(C)(C)C)NC(=O)CSC[C@@H](C(=O)NCC(N)=O)NC(=O)[C@H](CC(C)C)NC(=O)[C@H](Cc2cnc[nH]2)NC1=O [Example 295] ({CH2CO}-[Tle][Bip(4'-COOH)][Bip(4'-NHAc)][Sar]FD[dR]IPIHLCG-NH2; thioether N-13)
8,< 50 nM,CC[C@H](C)[C@@H]1NC(=O)[C@@H]2CCCN2C(=O)[C@H]([C@@H](C)CC)NC(=O)[C@@H](CCCNC(=N)N)NC(=O)[C@H](CC(=O)O)NC(=O)[C@H](Cc2ccc(O)cc2)NC(=O)CN(C)C(=O)[C@H](Cc2ccc(-c3ccc(NC(C)=O)cc3)cc2)NC(=O)[C@H](Cc2ccc(-c3ccccc3)cc2)NC(=O)[C@H](C(C)(C)C)NC(=O)CSC[C@@H](C(=O)NCC(N)=O)NC(=O)[C@H](CC(C)C)NC(=O)[C@H](Cc2ccccc2)NC1=O [Example 296] ({CH2CO}-[Tle][Bip][Bip(4'-NHAc)][Sar]YD[dR]IPIFLCG-NH2; thioether N-13)
9,< 50 nM,CC[C@H](C)[C@@H]1NC(=O)[C@@H]2CCCN2C(=O)[C@H]([C@@H](C)CC)NC(=O)[C@@H](CCCNC(=N)N)NC(=O)[C@H](CC(=O)O)NC(=O)[C@H](Cc2ccccn2)NC(=O)CN(C)C(=O)[C@H](Cc2ccc(-c3ccc(NC(C)=O)cc3)cc2)NC(=O)[C@H](Cc2ccc(-c3ccccc3)cc2)NC(=O)[C@H](C(C)(C)C)NC(=O)CSC[C@@H](C(=O)NCC(N)=O)NC(=O)[C@H](CC(C)C)NC(=O)[C@H](Cc2cccc(C(=N)N)c2)NC1=O [Example 297] ({CH2CO}-[Tle][Bip][Bip(4'-NHAc)][Sar][2Pal]D[dR]IPI[X85]LCG-NH2; thioether N-13)
10,50 to 200 nM,CC[C@H](C)[C@@H]1NC(=O)[C@@H]2CCCN2C(=O)[C@H]([C@@H](C)CC)NC(=O)[C@@H](CCCNC(=N)N)NC(=O)[C@H](CC(=O)O)NC(=O)[C@H](Cc2ccco2)NC(=O)CN(C)C(=O)[C@H](Cc2ccc(-c3ccc(NC(C)=O)cc3)cc2)NC(=O)[C@H](Cc2ccc(-c3ccccc3)cc2)NC(=O)[C@H](C(C)(C)C)NC(=O)CSC[C@@H](C(=O)NCC(N)=O)NC(=O)[C@H](CC(C)C)NC(=O)[C@H](Cc2ccc(O)cc2)NC1=O [Example 298] ({CH2CO}-[Tle][Bip][Bip(4'-NHAc)][Sar][Ala(2-furyl)]D[dR]IPIYLCG-NH2; thioether N-13)
11,50 to 200 nM,CC[C@H](C)[C@@H]1NC(=O)[C@@H]2CCCN2C(=O)[C@H]([C@@H](C)CC)NC(=O)[C@@H](CCCNC(=N)N)NC(=O)[C@H](CC(=O)O)NC(=O)[C@@H]2CCCN2C(=O)CN(C)C(=O)[C@H](Cc2ccc(-c3ccc(NC(C)=O)cc3)cc2)NC(=O)[C@H](Cc2ccc(-c3ccc(C(=O)O)cc3)cc2)NC(=O)[C@H](C(C)(C)C)NC(=O)CSC[C@@H](C(=O)NCC(N)=O)NC(=O)[C@H](CC(C)C)NC(=O)[C@H](Cc2ccc(O)cc2)NC1=O [Example 300] ({CH2CO}-[Tle][Bip(4'-COOH)][Bip(4'-NHAc)][Sar]PD[dR]IPIYLCG-NH2; thioether N-13)
